Active and inactive are the calls of the source. The rule behind the calls is not given here.
Legend:
[1] = biological target: Apoptosis regulator Bcl-2 (Homo sapiens, UniProt P10415); test: Inhibition of GST-tagged Bcl2 using [FAM]-IWIAQELRRIGDEFNAYY-NH2 as substrate after 60 mins by fluorescence polarization assay
[2] = biological target: Bcl-2-like protein 1 (Homo sapiens, UniProt Q07817); test: Inhibition of biotin-labelled Bcl-xL using [FAM]-IWIAQELRRIGDEFNAYY-NH2 as substrate after 60 mins by FRET analysis
[3] = Cytotoxicity against human SU-DHL4 cells after 72 hrs by firefly luciferase-based assay in presence of 2% fetal calf serum; type: functional, cell-based, SUD4; conditions: SU-DHL-4, 72 h
[4] = tested on: MV4-11; test: Cytotoxicity against human MV411 cells after 72 hrs by firefly luciferase-based assay in presence of 2% fetal calf serum; type: functional, cell-based; conditions: MV4-11, 72 h
[5] = tested on: MV4-11; test: Cytotoxicity against human MV411 cells after 72 hrs by firefly luciferase-based assay in presence of 10% fetal calf serum; type: functional, cell-based; conditions: MV4-11, 72 h
[6] = tested on: MV4-11; test: Induction of cytochrome C release in mitochondria isolated from human MV411 cells after 40 mins by Western blotting analysis; type: functional
[7] = tested on: MV4-11; test: Induction of BAK oligomerization in mitochondria isolated from human MV411 cells after 40 mins by Western blotting analysis; type: functional
[8] = tested on: MV4-11; test: Induction of mitochondria depolarization in human MV411 cells at 3 uM after 7 hrs by flow cytometry; type: functional
[9] = tested on: MV4-11; test: Induction of cytochrome C release in mitochondria isolated from human MV411 cells at 0.1 uM after 40 mins by Western blotting analysis; type: functional
[10] = tested on: MV4-11; test: Induction of BAK oligomerization in mitochondria isolated from human MV411 cells at 0.1 uM after 40 mins by Western blotting analysis; type: functional
[11] = tested on: MV4-11; test: Induction of BAK oligomerization in mitochondria isolated from human MV411 cells at 1 uM after 40 mins by Western blotting analysis; type: functional

Sequence of Bcl-2-like protein 1 (Q07817 whole entry): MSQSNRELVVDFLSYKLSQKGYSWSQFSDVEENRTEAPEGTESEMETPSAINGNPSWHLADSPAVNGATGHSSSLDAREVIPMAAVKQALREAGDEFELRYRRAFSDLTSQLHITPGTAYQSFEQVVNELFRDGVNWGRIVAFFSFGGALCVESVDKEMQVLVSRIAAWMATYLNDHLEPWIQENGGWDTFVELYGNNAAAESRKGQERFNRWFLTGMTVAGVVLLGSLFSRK
Sequence of Apoptosis regulator Bcl-2 (P10415 whole entry): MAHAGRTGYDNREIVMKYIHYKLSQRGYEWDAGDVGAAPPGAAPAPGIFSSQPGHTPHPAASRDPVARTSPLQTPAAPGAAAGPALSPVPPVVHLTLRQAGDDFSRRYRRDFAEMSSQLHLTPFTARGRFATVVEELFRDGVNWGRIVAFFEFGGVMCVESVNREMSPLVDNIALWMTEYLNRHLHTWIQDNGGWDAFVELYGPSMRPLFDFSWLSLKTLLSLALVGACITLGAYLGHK

Question: What does the source list for CCCCN(CCCC)c1nccc(-c2ccc(C(=O)NS(=O)(=O)c3ccc4ccc(I)cc4c3)cc2C(=O)N2CCc3ccccc3C2)n1?
Answer: IC50 [1]: 0.14 µM; IC50 [2]: 0.97 µM

Question: With CCCCc1c(-c2ccc(C(=O)NS(=O)(=O)c3ccc4ccccc4c3)cc2C(=O)N2CCc3ccccc3C2)c(CO)nn1-c1ccc(Oc2ccc(Cl)cc2)cc1 as the compound, how does the IC50 [1] read?
Answer: 0.022 µM

Question: And the IC50 [2]?
Answer: 0.035 µM

Question: What does the source list for CCCCc1c(-c2ccc(C(=O)NS(=O)(=O)c3ccc4ccccc4c3)cc2C(=O)N2CCc3ccccc3C2)c(C(=O)O)nn1-c1ccccc1?
Answer: IC50 [1]: 0.17 µM; IC50 [2]: 0.03 µM

Question: Which results are given for CCCCOc1ccc(-n2nc(CO)c(-c3ccc(C(=O)NS(=O)(=O)c4ccc5ccccc5c4)cc3C(=O)N3CCc4ccccc4C3)c2CCCC)cc1?
Answer: IC50 [1]: 0.045 µM; IC50 [2]: 0.026 µM; IC50 [3]: 2.49 µM; IC50 [4]: 1.43 µM

Question: Which results are given for CCCCN(CCCC)c1ncc(Cl)c(-c2ccc(C(=O)NS(=O)(=O)c3ccc4ccccc4c3)cc2C(=O)N2CCc3ccccc3C2)n1?
Answer: IC50 [1]: 0.16 µM; IC50 [2]: 0.23 µM

Question: Which IC50 [1] does the source give for CCCCc1c(-c2ccc(C(=O)NS(=O)(=O)c3ccc4ccccc4c3)cc2C(=O)N2CCc3ccccc3C2)c(CO)nn1-c1ccc(-c2ccccc2)cc1 here?
Answer: 0.007 µM

Question: What about the IC50 [2] of the same compound?
Answer: 0.013 µM

Question: What does the source list for CCCCc1c(-c2ccc(C(=O)NS(=O)(=O)c3ccc4ccccc4c3)cc2C(=O)N2CCc3ccccc3C2)c(CO)nn1-c1ccc(CCCO)cc1?
Answer: IC50 [1]: 0.014 µM; IC50 [2]: 0.007 µM

Question: What does the source list for CCCN(CCC)c1ncc(Cl)c(-c2ccc(C(=O)NS(=O)(=O)c3ccc4cccc(Cl)c4c3)cc2C(=O)N2Cc3ccccc3C[C@H]2CN)n1?
Answer: IC50 [1]: 0.015 µM; IC50 [2]: 0.014 µM; IC50 [3]: 6.64 µM; IC50 [4]: 0.33 µM; IC50 [5]: 0.73 µM; Activity [6]: Dose-dependent effect; Activity [7]: Dose-dependent effect; Activity [8]: 25%

Question: For CCCCc1c(-c2ccc(C(=O)NS(=O)(=O)c3ccc4ccccc4c3)cc2C(=O)N2CCc3ccccc3C2)c(CO)nn1-c1ccc(CCO)cc1, which IC50 [2] is on record?
Answer: 0.006 µM

Question: For CCCCCS(=O)(=O)NC(=O)c1ccc(-c2c(CO)nn(-c3ccc(Oc4cccc(Cl)c4)cc3)c2CCCC)c(C(=O)N2CCc3ccccc3C2)c1, which IC50 [1] is on record?
Answer: 0.065 µM

Question: And the IC50 [2]?
Answer: 0.12 µM

Question: Which IC50 [1] does the source give for CCCCc1c(-c2ccc(C(=O)NS(=O)(=O)c3ccc4ccccc4c3)cc2C(=O)N2CCc3ccccc3C2)c(CO)nn1-c1ccccc1 here?
Answer: 0.061 µM

Question: What about the IC50 [2] of the same compound?
Answer: 0.011 µM

Question: Which IC50 [1] does the source give for CCCCc1c(-c2ccc(C(=O)NS(=O)(=O)c3ccc4ccccc4c3)cc2C(=O)N2CCc3ccccc3C2)c(CO)nn1-c1ccc(Oc2cccc(Cl)c2)cc1 here?
Answer: 0.008 µM

Question: And the IC50 [2]?
Answer: 0.018 µM

Question: And the IC50 [3]?
Answer: 2.35 µM

Question: What about the IC50 [4] of the same compound?
Answer: 0.7 µM

Question: And the Activity [9]?
Answer: Active

Question: What about the Activity [10] of the same compound?
Answer: Active

Question: And the Activity [8]?
Answer: 25%

Question: Which results are given for CCCCc1c(-c2ccc(C(=O)NS(=O)(=O)c3ccc4ccccc4c3)cc2C(=O)N2Cc3ccccc3C[C@H]2CN)c(CO)nn1-c1ccccc1?
Answer: IC50 [1]: 0.024 µM; IC50 [2]: 0.007 µM

Question: Which IC50 [1] does the source give for CCCN(CCC)c1ncc(Cl)c(-c2ccc(C(=O)NS(=O)(=O)c3ccc4cccc(Cl)c4c3)cc2C(=O)N2Cc3ccccc3C[C@H]2CO)n1 here?
Answer: 0.009 µM

Question: And the IC50 [2]?
Answer: 0.009 µM

Question: And the IC50 [3]?
Answer: 3.79 µM

Question: What about the IC50 [4] of the same compound?
Answer: 0.33 µM

Question: And the Activity [6]?
Answer: Dose-dependent effect

Question: And the Activity [7]?
Answer: Dose-dependent effect

Question: And the Activity [8]?
Answer: 25%

Question: For CCCCN(CCCC)c1nccc(-c2ccc(C(=O)NS(=O)(=O)c3ccc4cccc(Cl)c4c3)cc2C(=O)N2Cc3ccccc3C[C@H]2CO)n1, which IC50 [1] is on record?
Answer: 0.16 µM

Question: What about the IC50 [2] of the same compound?
Answer: 0.13 µM

Question: With CCCCc1c(-c2ccc(C(=O)NS(=O)(=O)c3ccc4ccccc4c3)cc2C(=O)N2Cc3ccccc3C[C@H]2CO)c(CO)nn1-c1ccccc1 as the compound, how does the IC50 [1] read?
Answer: 0.011 µM

Question: Which results are given for CCOC(=O)c1nn(-c2ccccc2)c(C)c1-c1ccc(C(=O)NS(=O)(=O)c2ccc3ccccc3c2)cc1C(=O)N1CCc2ccccc2C1?
Answer: IC50 [1]: 4.19 µM; IC50 [2]: 0.64 µM

Question: Which results are given for CCCCN(CCCC)c1nccc(-c2ccc(C(=O)NS(=O)(=O)c3ccc4ccccc4c3)cc2C(=O)N2CCc3ccccc3C2)n1?
Answer: IC50 [1]: 0.7 µM; IC50 [2]: 0.5 µM

Question: Which IC50 [1] does the source give for CCCCc1c(-c2ccc(C(=O)NS(=O)(=O)c3ccc4ccccc4c3)cc2C(=O)N2CCc3ccccc3C2)c(C(=O)OCC)nn1-c1cccc(Oc2ccccc2)c1 here?
Answer: 0.14 µM

Question: And the IC50 [2]?
Answer: 0.47 µM

Question: Which results are given for CCCCN(CCCC)c1nccc(-c2ccc(C(=O)NS(=O)(=O)c3ccc4cccc(Cl)c4c3)cc2C(=O)N2CCc3ccccc3C2)n1?
Answer: IC50 [1]: 0.12 µM; IC50 [2]: 0.48 µM

Question: With CCCCc1c(-c2ccc(C(=O)NS(=O)(=O)CC[Si](C)(C)C)cc2C(=O)N2CCc3ccccc3C2)c(CO)nn1-c1ccccc1 as the compound, how does the IC50 [1] read?
Answer: 0.19 µM

Question: Which results are given for CCCCc1c(-c2ccc(C(=O)NS(=O)(=O)CC)cc2C(=O)N2CCc3ccccc3C2)c(CO)nn1-c1ccc(Oc2cccc(Cl)c2)cc1?
Answer: IC50 [1]: 0.19 µM; IC50 [2]: 0.14 µM

Question: For CCCCc1c(-c2ccc(C(=O)NS(=O)(=O)c3ccc4ccccc4c3)cc2C(=O)N2CCc3ccccc3C2)c(C(=O)OCC)nn1-c1ccc(Oc2ccccc2)cc1, which IC50 [2] is on record?
Answer: 0.055 µM

Question: With CCCCc1c(-c2ccc(C(=O)NS(=O)(=O)c3ccc4ccccc4c3)cc2C(=O)N2CCc3ccccc3C2)c(CO)nn1-c1ccc(Oc2ccccc2)cc1 as the compound, how does the IC50 [2] read?
Answer: 0.035 µM

Question: For CCCCc1c(-c2ccc(C(=O)NS(=O)(=O)c3ccc4ccccc4c3)cc2C(=O)N2CCc3ccccc3C2)c(CO)nn1-c1cccc(CO)c1, which IC50 [1] is on record?
Answer: 0.071 µM

Question: And the IC50 [2]?
Answer: 0.015 µM

Question: What about the IC50 [3] of the same compound?
Answer: > 10 µM

Question: And the IC50 [4]?
Answer: 5.06 µM

Question: And the Activity [9]?
Answer: Active

Question: What about the Activity [10] of the same compound?
Answer: Active

Question: What does the source list for CCCCN(CCCC)c1nccc(-c2ccc(C(=O)NS(=O)(=O)c3ccc4ccccc4c3)cc2C(=O)N2Cc3ccccc3C[C@H]2CN)n1?
Answer: IC50 [1]: 0.43 µM; IC50 [2]: 0.16 µM

Question: With CCCCc1c(-c2ccc(C(=O)NS(=O)(=O)c3ccc4ccccc4c3)cc2C(=O)N2CCc3ccccc3C2)c(C(=O)OCC)nn1-c1ccccc1 as the compound, how does the IC50 [1] read?
Answer: 0.66 µM

Question: What about the IC50 [2] of the same compound?
Answer: 0.042 µM

Question: What does the source list for CCCCc1c(-c2ccc(C(=O)NS(=O)(=O)c3ccc4cccc(Cl)c4c3)cc2C(=O)N2CCc3ccccc3C2)c(CO)nn1-c1ccc(Oc2cccc(Cl)c2)cc1?
Answer: IC50 [1]: 0.006 µM; IC50 [2]: 0.015 µM; IC50 [3]: 2.02 µM; IC50 [4]: 0.58 µM

Question: With CCCCN(CCCC)c1ncc(C)c(-c2ccc(C(=O)NS(=O)(=O)c3ccc4ccccc4c3)cc2C(=O)N2CCc3ccccc3C2)n1 as the compound, how does the IC50 [1] read?
Answer: 0.11 µM

Question: And the IC50 [2]?
Answer: 0.12 µM

Question: With CCCCc1c(-c2ccc(C(=O)NS(=O)(=O)c3ccc4ccccc4c3)cc2C(=O)N2CCc3ccccc3C2)c(C(=O)OCC)nn1-c1ccc(OC)cc1 as the compound, how does the IC50 [1] read?
Answer: 1.79 µM

Question: What about the IC50 [2] of the same compound?
Answer: 0.048 µM

Question: For CCCN(CCC)c1nccc(-c2ccc(C(=O)NS(=O)(=O)c3ccc4ccccc4c3)cc2C(=O)N2CCc3ccccc3C2)n1, which IC50 [1] is on record?
Answer: 0.15 µM

Question: What about the IC50 [2] of the same compound?
Answer: 0.25 µM

Question: What about the Activity [11] of the same compound?
Answer: inactive

Question: What does the source list for CCCCN(CCCC)c1nccc(-c2ccc(C(=O)NS(=O)(=O)c3ccc4c(c3)CCN4Cc3ccc(Cl)c(Cl)c3)cc2C(=O)N2CCc3ccccc3C2)n1?
Answer: IC50 [1]: 0.12 µM; IC50 [2]: 0.71 µM

— ChEMBL document CHEMBL2029199, “Pyrazole and pyrimidine phenylacylsulfonamides as dual Bcl-2/Bcl-xL antagonists” (Bioorg Med Chem Lett, 2012)
